Reference: patent publication US12024707B2, “Methods and compositions for modulating lncRNAs and methods of treatment based on lncRNA expression” (Washington University, priority 2020, dated 2024)
Where a name gives a salt, the structure may show the parent alone.

Test system: HT29 RAMS11 overexpressing cells
Assay: High-throughput viability assay (resazurin), 119 FDA-approved anticancer drugs, RAMS11 overexpressing cells (Clone1, Clone2)
Conditions: 72 h, vs empty vector control
[1] = OE1 (RAMS11 overexpression clone 1), 0.1 uM drug
[2] = OE1 (RAMS11 overexpression clone 1), 1 uM drug
[3] = OE1 (RAMS11 overexpression clone 1), 10 uM drug
[4] = OE2 (RAMS11 overexpression clone 2), 0.1 uM drug
[5] = OE2 (RAMS11 overexpression clone 2), 1 uM drug
[6] = OE2 (RAMS11 overexpression clone 2), 10 uM drug

Row | Compound | Viability Fold Change [1] | Viability Fold Change [2] | Viability Fold Change [3] | Viability Fold Change [4] | Viability Fold Change [5] | Viability Fold Change [6]
1 | CC[C@H](Nc1ncnc2[nH]cnc12)c1nc2cccc(F)c2c(=O)n1-c1ccccc1 [Idelalisib] | 0.9092 | 0.8875 | 0.9111 | 0.9773 | 0.8852 | 0.8746
2 | O=P1(NCCCl)OCCCN1CCCl (stereo not drawn) [Ifosfamide] | 0.9167 | 1.025 | 0.9724 | 0.9226 | 1.055 | 1.058
3 | CC(C)Cn1cnc2c(N)nc3ccccc3c21 [Imiquimod] | 1.048 | 1.101 | 1.03 | 1.037 | 1.138 | 0.9752
4 | CCc1c2c(nc3ccc(OC(=O)N4CCC(N5CCCCC5)CC4)cc13)-c1cc3c(c(=O)n1C2)COC(=O)[C@]3(O)CC [Irinotecan HCl] | 0.9198 | 0.9608 | 1.151 | 0.9682 | 0.9711 | 1.068
5 | C/C(=C\c1csc(C)n1)[C@@H]1C[C@@H]2O[C@]2(C)CCC[C@H](C)[C@H](O)[C@@H](C)C(=O)C(C)(C)[C@@H](O)CC(=O)N1 [Ixabepilone] | 1.657 | 1.943 | 1.722 | 1.773 | 2.017 | 2.056
6 | CS(=O)(=O)CCNCc1ccc(-c2ccc3ncnc(Nc4ccc(OCc5cccc(F)c5)c(Cl)c4)c3c2)o1 [Lapatinib] | 1.034 | 1.269 | 1.357 | 1.216 | 1.285 | 1.391
7 | Nc1cccc2c1CN(C1CCC(=O)NC1=O)C2=O (stereo not drawn) [Lenalidomide] | 0.9659 | 1.021 | 0.9664 | 0.9115 | 1.009 | 0.8902
8 | N#Cc1ccc(C(c2ccc(C#N)cc2)n2cncn2)cc1 [Letrozole] | 0.9923 | 0.9536 | 0.9791 | 0.9454 | 1.057 | 0.8412
9 | O=NN(CCCl)C(=O)NC1CCCCC1 [Lomustine] | 0.9969 | 1.03 | 1.027 | 0.991 | 1.111 | 0.9646
10 | CC(=O)O[C@]1(C(C)=O)CC[C@H]2[C@@H]3C=C(C)C4=CC(=O)CC[C@]4(C)[C@H]3CC[C@@]21C [Megestrol acetate] | 0.8922 | 1.034 | 0.9961 | 0.8949 | 0.9578 | 0.9016
11 | N[C@@H](Cc1ccc(N(CCCl)CCCl)cc1)C(=O)O [Melphalan] | 0.9214 | 1.006 | 0.9782 | 0.9479 | 1.068 | 0.9942
12 | S=c1nc[nH]c2nc[nH]c12 [Mercaptopurine] | 0.964 | 0.9982 | 1.006 | 0.9412 | 1.029 | 1.05
13 | CN(Cc1cnc2nc(N)nc(N)c2n1)c1ccc(C(=O)N[C@@H](CCC(=O)O)C(=O)O)cc1 [Methotrexate] | 0.9199 | 0.5578 | 1.197 | 0.9143 | 0.5752 | 1.137
14 | COc1c2occc2cc2ccc(=O)oc12 [Methoxsalen] | 0.9521 | 0.971 | 0.7883 | 0.8888 | 0.9485 | 0.9406
15 | CO[C@@]12[C@H](COC(N)=O)C3=C(C(=O)C(C)=C(N)C3=O)N1C[C@@H]1N[C@@H]12 [Mitomycin] | 0.9668 | 1.547 | 2.416 | 1.006 | 1.624 | 2.004
16 | Clc1ccc(C(c2ccccc2Cl)C(Cl)Cl)cc1 (stereo not drawn) [Mitotane] | 0.8185 | 0.9667 | 0.9105 | 0.9482 | 0.9714 | 0.987
17 | O=C1c2c(O)ccc(O)c2C(=O)c2c(NCCNCCO)ccc(NCCNCCO)c21 [Mitoxantrone] | 1.145 | 1.451 | 1.375 | 1.105 | 1.432 | 1.508
18 | COc1nc(N)nc2c1ncn2[C@@H]1O[C@H](CO)[C@@H](O)[C@@H]1O [Nelarabine] | 0.9819 | 1.033 | 0.9555 | 0.9462 | 1.007 | 0.9701
19 | Cc1cn(-c2cc(NC(=O)c3ccc(C)c(Nc4nccc(-c5cccnc5)n4)c3)cc(C(F)(F)F)c2)cn1 [Nilotinib] | 0.8679 | 0.749 | 0.7379 | 1.013 | 0.888 | 0.7462
20 | O=C(c1cc(Cc2n[nH]c(=O)c3ccccc23)ccc1F)N1CCN(C(=O)C2CC2)CC1 [Olaparib] | 0.8162 | 0.9061 | 1 | 0.9035 | 0.952 | 0.9733
21 | COC(=O)C[C@](O)(CCCC(C)(C)O)C(=O)O[C@@H]1C(OC)=C[C@]23CCCN2CCc2cc4c(cc2[C@H]13)OCO4 [Omacetaxine mepesuccinate] | 1.354 | 1.614 | 1.606 | 1.376 | 1.468 | 1.436
22 | CC(=O)O[C@H]1C(=O)[C@@]2(C)[C@H]([C@H](OC(=O)c3ccccc3)[C@]3(O)C[C@H](OC(=O)[C@H](O)[C@@H](NC(=O)c4ccccc4)c4ccccc4)C(C)=C1C3(C)C)[C@]1(OC(C)=O)CO[C@@H]1C[C@@H]2O [Paclitaxel] | 2.775 | 3.5 | 3.241 | 2.662 | 3.065 | 3.061
23 | Cc1ccc(Nc2nccc(N(C)c3ccc4c(C)n(C)nc4c3)n2)cc1S(N)(=O)=O [Pazopanib hydrochloride] | 0.8743 | 0.7793 | 0.8633 | 0.9409 | 0.9056 | 0.9152
24 | Nc1nc2[nH]cc(CCc3ccc(C(=O)N[C@@H](CCC(=O)O)C(=O)O)cc3)c2c(=O)[nH]1 [Pemetrexed disodium salt] | 0.9118 | 0.9424 | 1.886 | 0.9953 | 0.9455 | 1.933
